Measurements: patent publication US20210379184A1, “Deep Eutectic Solvent Platform for Oral Pharmaceutical Formulations” (SeraNovo B.V., priority 2018, published 2021)
Converted amounts (≈) assume the structure as drawn.

Assay: physchem
Source text: The DES systems contained propylene glycol, a specific polymer solubilizer, and one or more (NA)DES constituents.

Compound | solubility (20 °C, pH 7, water) [µg/mL] | solubility (organic solvent or mixture, Concentration solubilized API (mg/mL)) [µg/mL] | factor by which the concentration solubilized in DES exceeds the solubility of the drug in water | Concentration solubilized API (mg/mL) | solubility (organic solvent or mixture, solubility of itraconazole) [µg/mL]
NC(=O)N1c2ccccc2C=Cc2ccccc21 [Carbamazepine] | 17 (≈ 72 µM) | > 100000 |  |  | 
COc1ccccc1OCCNCC(O)COc1cccc2[nH]c3ccccc3c12 (centres unmarked) [Carvedilol] | 0.6 (≈ 1.48 µM) |  |  |  | 
O=C(O)c1ccccc1Nc1cccc(C(F)(F)F)c1 [Flufenamic Acid] | 9.1 (≈ 32.4 µM) |  |  |  | 
CC(C)Cc1ccc(C(C)C(=O)O)cc1 (centres unmarked) [Ibuprofen] | 21 (≈ 102 µM) |  | at least 100 |  | 
CCC(C)n1ncn(-c2ccc(N3CCN(c4ccc(OCC5COC(Cn6cncn6)(c6ccc(Cl)cc6Cl)O5)cc4)CC3)cc2)c1=O (centres unmarked) [Itraconazole] | 0.004 (≈ 0.00567 µM) |  | ≤ 10.000.000 | up to 200 mg/mL | < 25000
CC(=O)N1CCN(c2ccc(OCC3COC(Cn4ccnc4)(c4ccc(Cl)cc4Cl)O3)cc2)CC1 (centres unmarked) [Ketoconazole] | 0.09 (≈ 0.169 µM) |  |  |  | 
